Assays:
PPIH = target: T1, PPIH (Homo sapiens, UniProt O43447); assay: Thermal stabilization assay (StarGazer static light scattering); assay type: binding; details: protein approximately 20 µM, compound 50 µM; shift vs basal Tagg
T1 construct: His6 (thrombin cleavage site) (N); made in house; host or cells: E. coli BL21 Gold DE3
Description: (§1) In order to elucidate the function of residues in the extended active site of the PPIase domain of the human cyclophilins, we probed the binding and catalytic function of these domains against either substrate or small-molecule inhibitors (see Figure 1 and Datapack S1 for graphical and tabular depictions of the active site). Three assays were utilized to explore these functions. […] This assay has been shown in several studies to be a reliable readout of small molecule binding for kinase and other enzyme families,[38]. […] Because of the inherent thermal stability characteristics of PPID and RanBP2, this technique was unable to distinguish between apo and cyclosporin-bound forms of those domains.
(§2) All protein samples used for static light scattering (StarGazer) trials were assessed for purity utilizing SDS-PAGE and verified for mass accuracy using mass spectrometry. Methods were generally as described as in [38]; protein at approximately 20 µM concentration was heated from room temperature to 80°C in the presence or absence of small molecules, including cyclosporins A, C, D, or H (LKT Labs, MN, USA). The […] were originally prepared in 100% DMSO at 50–100 mM concentration, then diluted to 50 µM for screening, thereby ensuring the final DMSO concentration was less than 5% during the experiment. […] Each compound was tested at least twice.

PPWD1 = target: T2, PPWD1 (Homo sapiens, UniProt Q96BP3); assay: as above; assay type: binding; details: protein approximately 20 µM, compound 50 µM; shift vs basal Tagg
T2 construct: His6 with thrombin cleavage site (N); made in house; host or cells: E. coli BL21 Gold DE3
T2 sequence (Q96BP3 490-645 limits assumed): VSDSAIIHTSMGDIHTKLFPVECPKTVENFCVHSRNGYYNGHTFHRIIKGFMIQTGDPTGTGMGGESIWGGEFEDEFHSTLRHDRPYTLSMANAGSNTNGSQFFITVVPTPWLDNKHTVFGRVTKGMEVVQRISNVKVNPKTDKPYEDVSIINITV
Description: as §1, §2

PPIL1 = target: T3, PPIL1 (Homo sapiens, UniProt Q9Y3C6); assay: as above; assay type: binding; details: protein approximately 20 µM, compound 50 µM; shift vs basal Tagg
T3 construct: His6 (thrombin cleavage site) (N); made in house; host or cells: E. coli BL21 Gold DE3
T3 sequence (Q9Y3C6 10-164 limits assumed): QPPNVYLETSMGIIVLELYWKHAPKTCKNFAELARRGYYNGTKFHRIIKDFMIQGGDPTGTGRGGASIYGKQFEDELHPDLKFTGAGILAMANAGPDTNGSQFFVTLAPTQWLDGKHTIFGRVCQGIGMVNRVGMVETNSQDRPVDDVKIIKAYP
Description: as §1, §2

PPIB = target: T4, PPIB (Homo sapiens, UniProt P23284); assay: as above; assay type: binding; details: protein approximately 20 µM, compound 50 µM; shift vs basal Tagg
T4 construct: His6 (thrombin cleavage site) (N); made in house; host or cells: E. coli BL21 Gold DE3
Description: as §1, §2

NKTR = target: T5, NKTR (Homo sapiens, UniProt P30414); assay: as above; assay type: binding; details: protein approximately 20 µM, compound 50 µM; shift vs basal Tagg
T5 construct: His6 with thrombin cleavage site (N); made in house; host or cells: E. coli BL21 Gold DE3
T5 sequence (P30414 10-175 limits assumed): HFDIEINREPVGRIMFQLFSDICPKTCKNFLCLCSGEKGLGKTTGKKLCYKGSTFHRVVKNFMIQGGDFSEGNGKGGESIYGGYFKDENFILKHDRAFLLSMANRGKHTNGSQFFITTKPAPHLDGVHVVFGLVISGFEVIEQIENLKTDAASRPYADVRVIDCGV
Description: as §1, §2

PPIC = target: T6, PPIC (Homo sapiens, UniProt P45877); assay: as above; assay type: binding; details: protein approximately 20 µM, compound 50 µM; shift vs basal Tagg
T6 construct: His6 (thrombin cleavage site) (N); made in house; host or cells: E. coli BL21 Gold DE3
Description: as §1, §2

PPIG [1] = target: T7, PPIG (Homo sapiens, UniProt Q13427); assay: as above; assay type: binding; details: protein approximately 20 µM, compound 50 µM; shift vs basal Tagg
T7 construct: His6 (thrombin cleavage site) (N); made in house; host or cells: E. coli BL21 Gold DE3 (general method; the K125A/E126A crystallization mutant was grown in BL21 DE3 Codon Plus RIL)
Description: as §1, §2

PPIE = target: T8, PPIE (Homo sapiens, UniProt Q9UNP9); assay: as above; assay type: binding; details: protein approximately 20 µM, compound 50 µM; shift vs basal Tagg
T8 construct: His6 (thrombin cleavage site) (N); made in house; host or cells: E. coli BL21 Gold DE3
Description: as §1, §2

PPIA = target: T9, PPIA (Homo sapiens, UniProt P62937); assay: as above; assay type: binding; details: protein approximately 20 µM, compound 50 µM; shift vs basal Tagg
T9 construct: His6 (thrombin cleavage site) (N); made in house; host or cells: E. coli BL21 Gold DE3
Description: as §1, §2

PPIF = target: T10, PPIF (Homo sapiens, UniProt P30405); assay: as above; assay type: binding; details: protein approximately 20 µM, compound 50 µM; shift vs basal Tagg
T10 construct: His6 (thrombin cleavage site) (N); made in house; host or cells: E. coli BL21 Gold DE3
Description: as §1, §2

PPIL2 = target: T11, PPIL2 (Homo sapiens, UniProt Q13356); assay: NMR-based tetrapeptide activity assay (1H/1H TOCSY); assay type: biochemical
T11 construct: His6 with thrombin cleavage site (N); made in house; host or cells: E. coli BL21 Gold DE3
T11 sequence (Q13356 278-433 limits assumed): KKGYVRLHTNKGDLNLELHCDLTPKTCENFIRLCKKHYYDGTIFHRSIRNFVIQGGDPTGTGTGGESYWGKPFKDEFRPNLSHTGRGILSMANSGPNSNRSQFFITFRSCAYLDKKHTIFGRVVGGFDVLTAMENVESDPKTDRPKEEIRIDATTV
Description: (§3) A two-dimensional NMR experiment (1H/1H TOCSY) described previously,[40], the only in vitro protease-free method available to probe for both substrate binding and catalytic activity of cyclophilins, was used to assess the commercially available tetrapeptides of sequence AAPF, AFPF, and AGPF [34]. […] A number of articles have documented the drawbacks of the protease-coupled assay,[42]–[44], an obvious example being that the addition of protease to the reaction mixture in the chymotrypsin-coupled assay requires additional testing to ensure that the enzymes and substrates being screened are not proteolytic targets. […] We detected binding and turnover for at least one of the tetrapeptide substrates tested for PPIA, PPIB, PPIC, PPID, PPIE, PPIF, PPIG, PPIH, PPIL1, PPWD1, and NKTR (Table 1; see Figure S1 for representative data showing binding and activity). This correlated well with previously determined activities,[20],[21],[28],[30],[45],[46], and established activity measurements for PPIF, PPIG, and NKTR.
(§4) Most protein samples aimed at assessing binding and/or catalysis of tetrapeptide substrates were diluted to 500 µL with 10% D2O and placed into a Shigemi microcell (Allison Park, PA, USA). Typical samples contained 0.075 mM protein and 2 mM of suc-AAPF-pNA, suc-AFPF-pNA, or suc-AGPF-pNA (Bachem), along with 100 mM phosphate buffer pH 7 and 100 mM NaCl. Spectra were collected at 25°C on a Varian 600 or 900 MHz spectrometer (Palo Alto, CA, USA). Spectra were acquired using standard Varian BioPack sequences, processed using NMRpipe software and visualized using CCPN software. For samples used to assess binding of PPIA to peptides DEGPF, DFGPF, DYGPF, YGGPF, or VRGPF, samples were as above except protein concentration was 0.3 mM and spectra were collected at 10°C.

SDCCAG-10 = target: T12, SDCCAG-10 (Homo sapiens, UniProt Q6UX04); assay: as above; assay type: biochemical
T12 construct: His6 with thrombin cleavage site (N); made in house; host or cells: E. coli BL21 Gold DE3
T12 sequence (Q6UX04 11-166 limits assumed): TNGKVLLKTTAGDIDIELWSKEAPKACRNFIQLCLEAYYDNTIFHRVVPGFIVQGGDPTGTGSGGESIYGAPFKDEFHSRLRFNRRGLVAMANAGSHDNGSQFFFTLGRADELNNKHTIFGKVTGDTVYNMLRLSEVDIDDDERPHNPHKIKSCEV
Description: as §3, §4

PPID = target: T13, PPID (Homo sapiens, UniProt Q08752); assay: as above; assay type: biochemical; details: collapse of substrate cis/trans peaks; at least one of suc-AAPF-pNA, suc-AFPF-pNA, suc-AGPF-pNA; 25°C
T13 construct: His6 (thrombin cleavage site) (N); made in house; host or cells: E. coli BL21 Gold DE3
Description: as §3, §4

PPIG [2] = target: T7, PPIG; assay: as above; assay type: biochemical; details: collapse of substrate cis/trans peaks; at least one of suc-AAPF-pNA, suc-AFPF-pNA, suc-AGPF-pNA; 25°C
Description: as §3, §4

[3] = collapse of substrate cis/trans peaks, suc-AAPF-pNA, suc-AFPF-pNA, suc-AGPF-pNA, 25°C

T7 sequence (Q13427 11-176 limits assumed): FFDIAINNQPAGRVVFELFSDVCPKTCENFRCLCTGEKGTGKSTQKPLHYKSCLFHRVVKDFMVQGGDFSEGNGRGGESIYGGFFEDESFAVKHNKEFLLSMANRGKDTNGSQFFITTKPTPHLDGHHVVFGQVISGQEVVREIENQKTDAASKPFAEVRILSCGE
T4 sequence (P23284 47-204 limits assumed): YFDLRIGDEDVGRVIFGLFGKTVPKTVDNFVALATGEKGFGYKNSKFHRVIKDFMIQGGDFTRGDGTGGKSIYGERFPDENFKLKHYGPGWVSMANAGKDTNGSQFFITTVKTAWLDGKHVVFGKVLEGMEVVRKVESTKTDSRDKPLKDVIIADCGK
T9 sequence (P62937 7-163 limits assumed): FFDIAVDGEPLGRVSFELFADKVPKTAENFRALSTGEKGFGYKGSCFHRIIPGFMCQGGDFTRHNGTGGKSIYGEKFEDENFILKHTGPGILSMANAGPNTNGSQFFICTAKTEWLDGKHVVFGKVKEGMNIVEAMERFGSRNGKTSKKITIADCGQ
T13 sequence (Q08752 19-183 limits assumed): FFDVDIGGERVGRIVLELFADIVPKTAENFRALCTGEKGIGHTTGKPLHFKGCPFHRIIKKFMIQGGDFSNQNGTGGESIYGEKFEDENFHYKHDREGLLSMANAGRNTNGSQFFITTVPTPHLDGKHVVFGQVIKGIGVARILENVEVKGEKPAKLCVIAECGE
T8 sequence (Q9UNP9 143-299 limits assumed): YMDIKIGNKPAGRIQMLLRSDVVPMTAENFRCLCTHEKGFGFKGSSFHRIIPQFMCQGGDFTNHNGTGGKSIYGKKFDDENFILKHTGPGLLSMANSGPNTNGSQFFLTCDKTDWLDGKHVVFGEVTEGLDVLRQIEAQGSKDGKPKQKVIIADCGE
T1 sequence (O43447 14-176 limits assumed): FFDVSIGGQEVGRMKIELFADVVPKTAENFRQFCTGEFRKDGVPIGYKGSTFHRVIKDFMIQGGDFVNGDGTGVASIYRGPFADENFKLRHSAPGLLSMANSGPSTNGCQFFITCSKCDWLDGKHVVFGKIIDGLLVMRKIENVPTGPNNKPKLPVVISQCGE
T6 sequence (P45877 41-198 limits assumed): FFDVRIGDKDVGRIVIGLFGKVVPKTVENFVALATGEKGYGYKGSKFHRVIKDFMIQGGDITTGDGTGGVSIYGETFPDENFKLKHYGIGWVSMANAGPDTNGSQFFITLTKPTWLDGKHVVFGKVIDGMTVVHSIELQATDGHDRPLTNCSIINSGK
T10 sequence (P30405 49-205 limits assumed): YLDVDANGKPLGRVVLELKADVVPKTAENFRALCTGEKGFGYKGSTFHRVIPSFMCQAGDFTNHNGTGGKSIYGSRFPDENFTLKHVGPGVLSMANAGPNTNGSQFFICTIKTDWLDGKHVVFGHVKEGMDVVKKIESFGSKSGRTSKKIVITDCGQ

| Binding of substrate (peak centers shift without coalescence) (PPIL2; Figure S1A) | Tetrapeptide Activity (PPIL2; [3]) | Binding of substrate (peak centers shift without coalescence) (SDCCAG-10; Figure S1A) | Tetrapeptide Activity (SDCCAG-10; [3]) | Tetrapeptide Activity (PPID) | Tetrapeptide Activity (PPIG [2]) | Molecule | Thermal Stability ΔTagg, CsC (PPIH) [°C] | Thermal Stability ΔTagg, CsC (PPWD1) [°C] | Thermal Stability ΔTagg, CsC (PPIL1) [°C] | Thermal Stability ΔTagg, CsC (PPIB) [°C] | Thermal Stability ΔTagg, CsC (NKTR) [°C] | Thermal Stability ΔTagg, CsC (PPIC) [°C] | Thermal Stability ΔTagg, CsC (PPIG [1]) [°C] | Thermal Stability ΔTagg, CsC (PPIE) [°C] | Thermal Stability ΔTagg, CsC (PPIA) [°C] | Thermal Stability ΔTagg, CsC (PPIF) [°C] |
| --- | --- | --- | --- | --- | --- | --- | --- | --- | --- | --- | --- | --- | --- | --- | --- | --- |
|  |  |  |  |  |  | C/C=C/C[C@@H](C)[C@@H](O)[C@H]1C(=O)N[C@@H]([C@@H](C)O)C(=O)N(C)CC(=O)N(C)[C@@H](CC(C)C)C(=O)N[C@@H](C(C)C)C(=O)N(C)[C@@H](CC(C)C)C(=O)N[C@@H](C)C(=O)N[C@H](C)C(=O)N(C)[C@@H](CC(C)C)C(=O)N(C)[C@@H](CC(C)C)C(=O)N(C)[C@@H](C(C)C)C(=O)N1C [CsC, cyclosporin C] | 7.3 | 5.2 | 1.7 | 3.4 | 3.0 | 7.0 | 2 | 6.8 | 1.9 | 10.7 |
| binding, but not catalysis | not active | binding, but not catalysis | not active | active isomerases | active isomerases | suc-AGPF-pNA |  |  |  |  |  |  |  |  |  |  |

From article PMC2911226, “Structural and Biochemical Characterization of the Human Cyclophilin Family of Peptidyl-Prolyl Isomerases” (PLoS Biology, 2010)
